What was measured:
[1] = test system: Green Peach Aphid (Myzus Persicae); test: Test of preventive value against green peach aphid (Test Example 1); format: in vivo; conditions: 500 ppm, sprayed over stems and leaves of potted Chinese cabbages, sixth day after spraying
Description: Test of Preventive Value Against Green Peach Aphid (Myzus Persicae)
Chinese cabbages were planted in plastic pots, each with a size of 8 cm in diameter and 8 cm in height, after which green peach aphids were propagated and the number of parasitic insects was examined in each pot. An oxazepine compound or salt thereof expressed by General Formula (I) according to the present invention was dispersed in water and the dispersion was diluted to 500 ppm in the form of a reagent, after which the reagent was sprayed over stems and leaves of potted Chinese cabbages and let dry under wind, and the pots were kept in a greenhouse, and on the sixth day after the reagent was sprayed, the number of green peach aphids living parasitically on each Chinese cabbage was examined and the preventive value was calculated based on the formula below, and judgment was made according to the criteria below. Preventive value=100−{(T×Ca)/(Ta×C)}×100 [Mathematical Formula 1] • Ta: Number of parasitic insects inside the treatment area before spraying • T: Number of parasitic insects inside the treatment area after spraying • Ca: Number of parasitic insects inside the non-treatment area before spraying • C: Number of parasitic insects inside the non-treatment area after spraying Judgment Criteria • A - - - Preventive value: 100% • B - - - Preventive value: 99%˜90% • C - - - Preventive value: 89%˜80% • D - - - Preventive value: 79%˜50%

[2] = test system: Small Brown Planthopper (Laodelphax Striatellus); test: Test of insecticidal efficacy against small brown planthopper (Test Example 2); format: in vivo; conditions: 500 ppm, rice plants soaked 30 seconds, third-instar larvae, eight days after inoculation; criteria same as in Test Example 1
From the text: Test of Insecticidal Efficacy Against Small Brown Planthopper (Laodelphax Striatellus)

| Structure (SMILES) | Preventive value, judgment [1] | Corrected insect mortality, judgment [2] |
| --- | --- | --- |
| CN1C(=O)c2nn(-c3cccnc3)cc2Oc2cnccc21 [5-2] | A to D | A to D |
| CN1C(=O)c2nn(-c3cccnc3)cc2Oc2ncc(C(F)(F)F)cc21 [4-10] | A to D | A to D |
| O=C1c2nn(-c3cccnc3)cc2Oc2ccccc2N1CCN1CCCCC1 [1-70] | A to D | A to D |
| O=C(CN1C(=O)c2nn(-c3cccnc3)cc2Oc2ccccc21)c1ccc(Cl)cc1 [1-76] | A to D | A to D |
| CSC1=Nc2cc(F)ccc2Oc2cn(-c3cccnc3)nc21 [11-18] | A to D | A to D |
| O=C1c2nn(-c3cccnc3)cc2Oc2cc(F)ccc2N1CCCCBr [8-34] | A to D | A to D |
| O=CN1C(=O)c2nn(-c3cccnc3)cc2Oc2ccccc21 [8-12] | A to D | A to D |
| CSCN1C(=O)c2nn(-c3cccnc3)cc2Oc2ccccc21 [8-2] | A to D | A to D |
| CN(C)C1=Nc2ccccc2Oc2cn(-c3cccnc3)nc21 [11-10] | A to D | A to D |
| CN1C(=O)c2nn(-c3cccnc3)cc2Oc2ccccc21 [Compound No. 1-2, 9-methyl-2-(pyridine-3-yl)-2H-benzo [b]pyrazolo [3,4-f][1,4]oxazepine-10 (9H)-one] | A to D | A to D |
| O=C1c2nn(-c3cccnc3)cc2Oc2ccccc2N1Cc1ccccn1 [1-57] | A to D | A to D |
| CS(=O)(=O)CN1C(=O)c2nn(-c3cccnc3)cc2Oc2ccccc21 [8-4] | A to D | A to D |
| ClC1=Nc2ccccc2Oc2cn(-c3cccnc3)nc21 [11-1] | A to D | A to D |
| CN1C(=O)c2nn(-c3cccnc3)cc2Oc2ccc(C(F)(F)F)cc21 [1-38] | A to D | A to D |
| COC(=O)N1C(=O)c2nn(-c3cccnc3)cc2Oc2ccccc21 [8-13] | A to D | A to D |
| O=C1c2nn(-c3cccnc3)cc2Oc2ccccc2N1CCN1CCOCC1 [1-71] | A to D | A to D |
| N#Cc1ccc2c(c1)NC(=O)c1nn(-c3cccnc3)cc1O2 [1-50] | A to D | A to D |
| c1cncc(-n2cc3c(n2)CNc2ccccc2O3)c1 [3-1] | A to D | A to D |
| CN1C(=O)c2nn(-c3cccnc3)cc2Oc2cc(Cl)ccc21 [1-27] | A to D | A to D |
| O=C1c2nn(-c3cccnc3)cc2Oc2ccc(F)cc2N1CC1CCCO1 (stereo not drawn) [8-41] | A to D | A to D |

| Structure (SMILES) | Preventive value, judgment [1] | Corrected insect mortality, judgment [2] |
| --- | --- | --- |
| N#CCN1C(=O)c2nn(-c3cccnc3)cc2Oc2ccccc21 [1-4] | A to D | A to D |
| Fc1ccc2c(c1)NC(=S)c1nn(-c3cccnc3)cc1O2 [2-5] | A to D | A to D |
| CCSC1=Nc2cc(F)ccc2Oc2cn(-c3cccnc3)nc21 [11-19] | A to D | A to D |
| CCOCN1C(=O)c2nn(-c3cccnc3)cc2Oc2cc(F)ccc21 [8-26] | A to D | A to D |
| C#CCN1C(=O)c2nn(-c3cccnc3)cc2Oc2cc(C#N)ccc21 [1-48] | A to D | A to D |
| CCCCN1C(=O)c2nn(-c3cccnc3)cc2Oc2ccccc21 [1-51] | A to D | A to D |
| N#CCN1C(=O)c2nn(-c3cccnc3)cc2Oc2cc(F)ccc21 [Compound No. 1-13, 2-(6-fluoro-10-oxo-2-(pyridine-3-yl)-2H-benzo [b]pyrazolo [3,4-f][1,4]oxazepine-9 (10H)-yl) acetonitrile] | A to D | A to D |
| COCN1C(=O)c2nn(-c3cccnc3)cc2Oc2cc(F)ccc21 [8-25] | A to D | A to D |
| CN1C(=O)c2nn(-c3cccnc3)cc2Oc2c(F)cccc21 [1-7] | A to D | A to D |
| O=C1Nc2ccccc2Oc2c1nn(-c1cccnc1)c2F [9-3] | A to D | A to D |
| CSCCOC1=Nc2ccc(C(F)(C(F)(F)F)C(F)(F)F)cc2Oc2cn(-c3cccnc3)nc21 [11-17] | A to D | A to D |
| CN1C(=O)c2nn(-c3cccnc3)cc2Oc2cc(F)ccc21 [Compound No. 1-11, 6-fluoro-9-methyl-2-(pyridine-3-yl)-2H-benzo [b]pyrazolo [3,4-f][1,4]oxazepine-10 (9H)-one] | A to D | A to D |
| COc1ccc2c(c1)Oc1cn(-c3cccnc3)nc1C(=O)N2C [1-40] | A to D | A to D |
| O=C1NC=COc2cn(-c3cccnc3)nc21 [7-1] | A to D | A to D |
| C=CCN(CC=C)C1=Nc2cc(F)ccc2Oc2cn(-c3cccnc3)nc21 [11-11] | A to D | A to D |
| CS(=O)(=O)CN1C(=O)c2nn(-c3cccnc3)cc2Oc2ccc(F)cc21 [8-49] | A to D | A to D |
| c1cncc(-n2cc3c(n2)C(NC2CC2)=Nc2ccccc2O3)c1 [11-7] | A to D | A to D |
| O=C1Nc2cc(C(F)(F)F)ccc2Oc2cn(-c3cccnc3)nc21 [1-37] | A to D | A to D |
| CN1C(=O)c2nn(-c3cccnc3)cc2Oc2cc(C(F)(F)F)ccc21 [1-34] | A to D | A to D |
